Patent publication US8598078B2, “Condensed anthran I lami de derivatives as insecticides” (Syngenta Crop Protection, LLC, priority 2007, dated 2013)
Read-outs that look alike come from different tables or passages of the source.

Key:
[1] = tested on: Diabrotica balteata (corn root worm); experiment: Diabrotica balteata (larvicide, feeding/residual contact activity, preventive), artificial diet MTP; assay type: in vivo; conditions: 120 h, read-out: activity (larval mortality, antifeedant, growth regulation)
Procedure: Diabrotica balteata (Corn Root Worm)
(§1) (Larvicide, Feeding/Residual Contact Activity, Preventive)
24-well microtiter plate (MTP) with artificial diet was treated with test solutions by pipetting. After drying, the MTP's were infested with larvae (L2) (6-10 per well). After an incubation period of 5 days, samples were checked for larval mortality, antifeedant and growth regulation.

[2] = tested on: Spodoptera littoralis (Egyptian cotton leafworm); experiment: Activity against Spodoptera littoralis (larvicide, feeding/residual contact activity, preventive), cotton leaf discs; assay type: in vivo; conditions: foliar, 72 h, read-out: activity (mortality, repellent effect, feeding behaviour, growth regulation)
From the text: Activity Against Spodoptera littoralis (Egyptian Cotton Leafworm)
as §1
Cotton leaf discs were placed on agar in a 24-well microtiter plate and sprayed with test solutions. After drying, the leaf discs were infested with 5 L1 larvae. The samples were checked for mortality, repellent effect, feeding behaviour, and growth regulation 3 days after treatment.

[3] = tested on: Heliothis virescens (tobacco budworm); experiment: Activity against Heliothis virescens (ovo-larvicide, feeding/contact activity, curative), eggs on artificial diet; assay type: in vivo; conditions: read-out: activity (egg mortality, larval mortality, growth regulation)
Procedure: Activity Against Heliothis virescens (Tobacco Budworm)
(Ovo-Larvicide, Feeding/Contact Activity, Curative)
Eggs (0-24 h old) were placed in 24-well microtiter plate on artificial diet and treated with test solutions by pipetting. After an incubation period of 4 days, samples were checked for egg mortality, larval mortality, and growth regulation.

[4] = tested on: Myzus persicae (green peach aphid); experiment: Activity against Myzus persicae (mixed population, systemic/feeding activity, curative), pea seedling roots in test solution; assay type: in vivo; conditions: 144 h, read-out: activity (mortality and special effects on the plant)
From the text: (§2) Activity Against Myzus persicae (Green Peach Aphid)
(Mixed Population, Systemic/Feeding Activity, Curative)
Roots of pea seedlings, infested with an aphid population of mixed ages, were placed directly in the test solutions. 6 days after introduction, samples were checked for mortality and special effects on the plant.

[5] = tested on: Myzus persicae (green peach aphid); experiment: Activity against Myzus persicae (mixed population, feeding/residual contact activity, preventive), sunflower leaf discs; assay type: in vivo; conditions: foliar, 144 h, read-out: activity (mortality and special effects)
Procedure: as §2
(§3) (Mixed Population, Feeding/Residual Contact Activity, Preventive)
(§4) Sunflower leaf discs were placed on agar in a 24-well microtiter plate and sprayed with test solutions. After drying, the leaf discs were infested with an aphid population of mixed ages. After an incubation period of 6 days, samples were checked for mortality and special effects (e.g. phytotoxicity).

[6] = tested on: Thrips tabaci (onion thrips); experiment: Activity against Thrips tabaci (mixed population, feeding/residual contact activity, preventive), sunflower leaf discs; assay type: in vivo; conditions: foliar, 144 h, read-out: activity (mortality and special effects)
Procedure: Activity Against Thrips tabaci (Onion Thrips)
as §3
as §4, with “a thrips” for “an aphid”

[7] = tested on: Nilaparvata lugens (brown rice planthopper); experiment: Activity against Nilaparvata lugens (larvicide, feeding/contact), rice seedlings; assay type: in vivo; conditions: read-out: activity (mortality, growth regulation, effects on the F1 generation)
Procedure: Activity Against Nilaparvata lugens (Brown Rice Planthopper)
(Larvicide, Feeding/Contact)
Rice seedlings were treated with the diluted test solutions in a spray chamber. After drying, they were infested with 20 N3 nymphs (2 replicates). 6-12 days after the treatment samples were checked for mortality, growth regulation, and effects on the F, generation.

[8] = tested on: Plutella xylostella (diamond back moth); experiment: Plutella xylostella (larvicide, feeding/residual contact activity, preventive), artificial diet MTP; assay type: in vivo; conditions: 120 h, read-out: activity (larval mortality, antifeedant, growth regulation)
Procedure: Plutella xylostella (Diamond Back Moth)
as §1
24-well microtiter plate (MTP) with artificial diet was treated with test solutions by pipetting. After drying, the MTP's were infested with larvae (L2) (10-15 per well). After an incubation period of 5 days, samples were checked for larval mortality, antifeedant and growth regulation.

[9] = 400 ppm, L2 larvae on treated artificial diet, 5 days incubation
[10] = 400 ppm, L1 larvae on sprayed cotton leaf discs, 3 days after treatment
[11] = 400 ppm, eggs 0-24 h old on artificial diet, 4 days incubation
[12] = 400 ppm, mixed-age aphids on sprayed sunflower leaf discs, 6 days incubation
[13] = 400 ppm, N3 nymphs on sprayed rice seedlings, 6-12 days after treatment

| Structure (SMILES) | melting point | mortality at 400 ppm [1] | mortality at 400 ppm [2] | mortality at 400 ppm [3] | mortality at 400 ppm [4] | mortality at 400 ppm [5] | mortality at 400 ppm [7] | mortality at 400 ppm [8] | other results |
| --- | --- | --- | --- | --- | --- | --- | --- | --- | --- |
| COc1cc(C(=O)Nc2c(C)cc3cn(-c4nc(Cl)nc(Cl)n4)nc3c2C(=O)NC(C)C)n(-c2ncccc2Cl)n1 | 216 °C (dec.) | – | – | – | – | – | – | – | – |
| CCCCCCCCN(C)C(=O)n1cc2cc(C)c(NC(=O)c3cc(OC)nn3-c3ncccc3Cl)c(C(=O)NC(C)C)c2n1 | 66 to 70 °C | – | – | – | – | – | – | – | – |
| COc1cc(C(=O)Nc2c(C)cc3cn(C(=O)OC(C)(C)C)nc3c2C(=O)NC(C)C)n(-c2ncccc2Cl)n1 | 161 to 162 °C | – | – | – | – | – | – | – | – |
| CCCC(C)(C)C(=O)n1cc2cc(C)c(NC(=O)c3cc(OC)nn3-c3ncccc3Cl)c(C(=O)NC(C)C)c2n1 [P.31] | – | > 80% | > 80% | > 80% | > 80% | > 80% | > 80% | > 80% | mortality at 400 ppm [6]: > 80% |
| CCCCCCCCCCCCCCCCOCCOCCOC(=O)n1cc2cc(C)c(NC(=O)c3cc(OC)nn3-c3ncccc3Cl)c(C(=O)NC(C)C)c2n1 [P.23] | – | – | – | – | – | – | – | – | mortality at 400 ppm [1, 9]: > 80%; mortality at 400 ppm [2, 10]: > 80%; mortality at 400 ppm [3, 11]: > 80%; mortality at 400 ppm [5, 12]: > 80%; mortality at 400 ppm ([6]; 400 ppm, mixed-age thrips on sprayed sunflower leaf discs, 6 days incubation): > 80%; mortality at 400 ppm [7, 13]: > 80%; mortality at 400 ppm [8, 9]: > 80% |
| COCn1ncc2cc(Cl)c(NC(=O)c3cc(C(F)(F)F)nn3-c3ncccc3Cl)c(C(=O)NC(C)C)c21 [P.2] | – | > 80% | > 80% | > 80% | > 80% | > 80% | > 80% | > 80% | mortality at 400 ppm [6]: > 80% |
| COc1cc(C(=O)Nc2c(C)cc3cn(C(=O)C(C)(C)C)nc3c2C(=O)NC(C)C)n(-c2ncccc2Cl)n1 [P.26] | – | > 80% | > 80% | > 80% | > 80% | > 80% | > 80% | > 80% | – |
| CCCCCCCCCCCCOCCOC(=O)n1cc2cc(C)c(NC(=O)c3cc(OC)nn3-c3ncccc3Cl)c(C(=O)NC(C)C)c2n1 [P.29] | – | – | – | – | – | – | – | – | mortality at 400 ppm [1, 9]: > 80%; mortality at 400 ppm [2, 10]: > 80%; mortality at 400 ppm [3, 11]: > 80%; mortality at 400 ppm ([4]; 400 ppm, systemic, roots of infested pea seedlings in test solution, 6 days): > 80%; mortality at 400 ppm [5, 12]: > 80%; mortality at 400 ppm [7, 13]: > 80%; mortality at 400 ppm [8, 9]: > 80% |
| COc1cc(C(=O)Nc2c(C)cc3cn(Cc4ccccn4)nc3c2C(=O)NC(C)C)n(-c2ncccc2Cl)n1 | 156 to 160 °C | – | – | – | – | – | – | – | – |
| COCn1ncc2cc(C)c(NC(=O)c3cc(OC)nn3-c3ncccc3Cl)c(C(=O)NC(C)C)c21 [P.19] | – | > 80% | > 80% | > 80% | > 80% | > 80% | > 80% | > 80% | mortality at 400 ppm [6]: > 80% |
| COc1cc(C(=O)Nc2c(C)cc3cn(-c4nc(OC)nc(OC)n4)nc3c2C(=O)NC(C)C)n(-c2ncccc2Cl)n1 | 226 to 230 °C | – | – | – | – | – | – | – | – |
| CCOC(=O)CSC(=O)n1cc2cc(C)c(NC(=O)c3cc(OC)nn3-c3ncccc3Cl)c(C(=O)NC(C)C)c2n1 | 85 to 86 °C | – | – | – | – | – | – | – | – |
